Earlier results on 1 substance are cited in publication PMC5133935, “Hydrostatin-TL1, an Anti-Inflammatory Active Peptide from the Venom Gland of Hydrophis cyanocinctus in the South China Sea” (International Journal of Molecular Sciences, 2016).

The series concerns TNF-α. Particulars: cited from earlier work. From the text: Snake-derived products have been used as traditional Chinese medicines for centuries in China; however, their mechanisms of action and active constituents are still unknown. Snake venom, which is a mixture of proteins and peptides, has various biological properties including antitumor, anti-inflammatory, anti-stroke, and analgesic activities. […] Venom from s ...

As to Cathelicidin-BF, the “antimicrobial and anti-inflammatory properties” value was “both antimicrobial and anti-inflammatory properties”; the “expression and secretion of TNF-α” value is “decreases the expression and secretion of TNF-α”.
